Tests used:
Type in all cases: in vivo
[1] = tested on: Surinam grass (Brachiaria decumbens); test: Test B postemergence
Outline: (§1)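 Pre: seeded pots sprayed, chemical in non-phytotoxic solvent/surfactant mix. Post: plants 2–18 cm, 1–4 leaf, same formulation. Greenhouse 13–15 d; visual % control vs untreated, 0–100 scale.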

[2] = tested on: velvetleaf (Abutilon theophrasti); test: Test B postemergence
Outline: as §1

wild oat (Avena fatua) = test: Test B postemergence
Outline: as §1

corn (Zea mays) [3] = test: Test B postemergence
Outline: as §1

[4] = tested on: lambsquarters (Chenopodium album); test: Test B postemergence
Outline: as §1

[5] = tested on: wheat (Triticum aestivum); test: Test B postemergence
Outline: as §1

[6] = tested on: pigweed (Amaranthus retroflexus); test: Test B postemergence
Outline: as §1

[7] = tested on: cocklebur (Xanthium strumarium); test: Test B postemergence
Outline: as §1

[8] = tested on: blackgrass (Alopecurus myosuroides); test: Test B postemergence
Outline: as §1

[9] = tested on: crabgrass (Digitaria sanguinalis); test: Test B postemergence
Outline: as §1

[10] = tested on: barnyardgrass (Echinochloa crus-galli); test: Test B postemergence
Outline: as §1

[11] = tested on: giant foxtail (Setaria faberii); test: Test B postemergence
Outline: as §1

[12] = tested on: morning glory (Ipomoea hederacea); test: Test B postemergence
Outline: as §1

[13] = tested on: Surinam grass (Brachiaria decumbens); test: Test B preemergence
Outline: as §1

[14] = tested on: velvetleaf (Abutilon theophrasti); test: Test B preemergence
Outline: as §1

corn (Zea mays) [15] = test: Test B preemergence
Outline: as §1

[16] = tested on: lambsquarters (Chenopodium album); test: Test B preemergence
Outline: as §1

[17] = tested on: pigweed (Amaranthus retroflexus); test: Test B preemergence
Outline: as §1

[18] = tested on: cocklebur (Xanthium strumarium); test: Test B preemergence
Outline: as §1

[19] = tested on: crabgrass (Digitaria sanguinalis); test: Test B preemergence
Outline: as §1

[20] = tested on: barnyardgrass (Echinochloa crus-galli); test: Test B preemergence
Outline: as §1

rice (Oryza saliva) = test: Test B preemergence
Outline: as §1

[21] = tested on: giant foxtail (Setaria faberii); test: Test B preemergence
Outline: as §1

[22] = tested on: morning glory (Ipomoea hederacea); test: Test B preemergence
Outline: as §1

[23] = Rate 125 g/ha, scale 0 (no effect) to 100 (complete control), 13 to 15 days
[24] = Rate 500 g/ha, scale 0 to 100, 0 is no effect, 100 is complete control, 13 to 15 days
[25] = Preemergence, Rate 500 g/ha, scale 0 to 100, 0 no effect, 100 complete control
[26] = preemergence, Rate 125 g/ha, scale 0 to 100, 0 no effect, 100 complete control
[27] = Rate 62 g/ha, scale 0 to 100, 0 no effect, 100 complete control
[28] = Rate 250 g/ha, scale 0 (no effect) to 100 (complete control), 13 to 15 days
[29] = preemergence, Rate 62 g/ha, scale of 0 to 100 where 0 is no effect and 100 is complete control, 13 to 15 days
[30] = preemergence, Rate 250 g/ha, scale 0 to 100, 0 no effect, 100 complete control

With O=C1C(n2cc(Cl)c(C3CC3)n2)CCN1c1cccc(C(F)(F)F)c1 (stereo not drawn) [Compound 12] the “Plant response rating, Surinam grass” value [1, 23] was 0, the “Plant response rating, Surinam grass” value [1, 24] was 0 and the “Plant response rating, Velvetleaf” value [2, 23] was 0. The “Plant response rating, Velvetleaf” value [2, 24] was 0, the “Plant response rating, Wild Oat” value (wild oat (Avena fatua); [23]) was 0 and the “Plant response rating, Wild Oat” value (wild oat (Avena fatua); [24]) was 0. For the same compound, the “Plant response rating, Corn” value (corn (Zea mays) [3]; [23]) was 0, the “Plant response rating, Corn” value (corn (Zea mays) [3]; [24]) was 0 and the “Plant response rating, Lambsquarters” value [4, 23] was 0. For the same compound, the “Plant response rating, Lambsquarters” value [4, 24] was 0, the “Plant response rating, Wheat” value [5, 23] was 0 and the “Plant response rating, Wheat” value [5, 24] was 0. For the same compound, the “Plant response rating, Pigweed” value [6, 23] was 0, the “Plant response rating, Pigweed” value [6, 24] was 0 and the “Plant response rating, Cocklebur” value [7, 23] was 0. For the same compound, the “Plant response rating, Cocklebur” value [7, 24] was 0, the “Plant response rating, Blackgrass” value [8, 23] was 0 and the “Plant response rating, Blackgrass” value [8, 24] was 0. For the same compound, the “Plant response rating, Crabgrass” value [9, 23] was 0, the “Plant response rating, Crabgrass” value [9, 24] was 0 and the “Plant response rating, Barnyardgrass” value [10, 23] was 0. For the same compound, the “Plant response rating, Barnyardgrass” value [10, 24] was 0, the “Plant response rating, Foxtail, Giant” value [11, 23] was 0 and the “Plant response rating, Foxtail, Giant” value [11, 24] was 0. For the same compound, the “Plant response rating, Morningglory” value [12, 23] was 0, the “Plant response rating, Morningglory” value [12, 24] was 0 and the “Plant response rating, Surinam grass” value [13, 25] was 0. The “Plant response rating, Surinam grass” value [13, 26] was 0, the “Plant response rating, Velvetleaf” value [14, 25] was 0 and the “Plant response rating, Velvetleaf” value [14, 26] was 0. The “Plant response rating, Corn” value (corn (Zea mays) [15]; [25]) was 0, the “Plant response rating, Corn” value (corn (Zea mays) [15]; [26]) was 0 and the “Plant response rating, Lambsquarters” value [16, 25] was 0. For the same compound, the “Plant response rating, Lambsquarters” value [16, 26] was 0, the “Plant response rating, Pigweed” value [17, 25] was 0 and the “Plant response rating, Pigweed” value [17, 26] was 0. For the same compound, the “Plant response rating, Cocklebur” value [18, 25] was 0, the “Plant response rating, Cocklebur” value [18, 26] was 0 and the “Plant response rating, Crabgrass” value [19, 25] was 0. The “Plant response rating, Crabgrass” value [19, 26] was 0, the “Plant response rating, Barnyardgrass” value [20, 25] was 0 and the “Plant response rating, Barnyardgrass” value [20, 26] was 0. For the same compound, the “Plant response rating, Rice” value (rice (Oryza saliva); [25]) was 0, the “Plant response rating, Rice” value (rice (Oryza saliva); [26]) was 0 and the “Plant response rating, Foxtail, Giant” value [21, 25] was 0. For the same compound, the “Plant response rating, Foxtail, Giant” value [21, 26] was 0, the “Plant response rating, Morningglory” value [22, 25] was 0 and the “Plant response rating, Morningglory” value [22, 26] was 0.
In the case of CC(C)(C)c1ccn(C2OCN(c3cccc(C(F)(F)F)c3)C2=O)n1 (stereo not drawn) [compound 9], the “Plant response rating, Surinam grass” value [1, 27] is reported as 0, the “Plant response rating, Surinam grass” value [1, 28] is reported as 0 and the “Plant response rating, Velvetleaf” value [2, 27] is reported as 0. The “Plant response rating, Velvetleaf” value [2, 28] was 0, the “Plant response rating, Wild Oat” value (wild oat (Avena fatua); [27]) was 0 and the “Plant response rating, Wild Oat” value (wild oat (Avena fatua); [28]) was 0. For the same compound, the “Plant response rating, Corn” value (corn (Zea mays) [3]; [27]) was 0, the “Plant response rating, Corn” value (corn (Zea mays) [3]; [28]) was 0 and the “Plant response rating, Lambsquarters” value [4, 27] was 70. The “Plant response rating, Lambsquarters” value [4, 28] was 80, the “Plant response rating, Wheat” value [5, 27] was 0 and the “Plant response rating, Wheat” value [5, 28] was 0. For the same compound, the “Plant response rating, Pigweed” value [6, 27] was 70, the “Plant response rating, Pigweed” value [6, 28] was 80 and the “Plant response rating, Cocklebur” value [7, 27] was 10. For the same compound, the “Plant response rating, Cocklebur” value [7, 28] was 20, the “Plant response rating, Blackgrass” value [8, 27] was 0 and the “Plant response rating, Blackgrass” value [8, 28] was 0. For the same compound, the “Plant response rating, Crabgrass” value [9, 27] was 0, the “Plant response rating, Crabgrass” value [9, 28] was 0 and the “Plant response rating, Barnyardgrass” value [10, 27] was 0. For the same compound, the “Plant response rating, Barnyardgrass” value [10, 28] was 60, the “Plant response rating, Foxtail, Giant” value [11, 27] was 0 and the “Plant response rating, Foxtail, Giant” value [11, 28] was 0. The “Plant response rating, Morningglory” value [12, 27] was 0, the “Plant response rating, Morningglory” value [12, 28] was 10 and the “Plant response rating, Surinam grass” value [13, 29] was 0. The “Plant response rating, Surinam grass” value [13, 30] was 70, the “Plant response rating, Velvetleaf” value [14, 29] was 0 and the “Plant response rating, Velvetleaf” value [14, 30] was 0. The “Plant response rating, Corn” value (corn (Zea mays) [15]; [29]) was 0, the “Plant response rating, Corn” value (corn (Zea mays) [15]; [30]) was 0 and the “Plant response rating, Lambsquarters” value [16, 29] was 90. For the same compound, the “Plant response rating, Lambsquarters” value [16, 30] was 100, the “Plant response rating, Pigweed” value [17, 29] was 80 and the “Plant response rating, Pigweed” value [17, 30] was 100. For the same compound, the “Plant response rating, Cocklebur” value [18, 29] was 0, the “Plant response rating, Cocklebur” value [18, 30] was 0 and the “Plant response rating, Crabgrass” value [19, 29] was 0. For the same compound, the “Plant response rating, Crabgrass” value [19, 30] was 100, the “Plant response rating, Barnyardgrass” value [20, 29] was 0 and the “Plant response rating, Barnyardgrass” value [20, 30] was 60. For the same compound, the “Plant response rating, Rice” value (rice (Oryza saliva); [29]) was 0, the “Plant response rating, Rice” value (rice (Oryza saliva); [30]) was 0 and the “Plant response rating, Foxtail, Giant” value [21, 29] was 30. The “Plant response rating, Foxtail, Giant” value [21, 30] was 90, the “Plant response rating, Morningglory” value [22, 29] was 0 and the “Plant response rating, Morningglory” value [22, 30] was 0.
